Experimental data reported in patent US20130331331A1, “HEXAPEPTIDE WITH IMPROVED ACTIVITY IN THE REPAIR OF CELLULAR DNA OF DERMAL CELLS” (priority 2011, published 2013).
Non-standard residues stand in square brackets, D forms with d. Nle = CCCC[C@H](N)C(=O)O

Test system: melanocyte strain 1505b
Assay: Cell proliferation as a measure of stability, strain 1505b
Type: cell-based, human

## Ac-Nle-Glu His-D-Phe-Arg-Trp-NH2 (Ac-[Nle]EH[dF]RW-NH2; SMILES CCCC[C@H](NC(C)=O)C(=O)N[C@@H](CCC(=O)O)C(=O)N[C@@H](Cc1c[nH]cn1)C(=O)N[C@H](Cc1ccccc1)C(=O)N[C@@H](CCCNC(=N)N)C(=O)N[C@@H](Cc1c[nH]c2ccccc12)C(N)=O) [CUV9900, hexapeptide alpha-MSH analogue]
  more stable in comparison to MSH (cell proliferation): 2.6%
  more stable than NDP-MSH (cell proliferation): 10.16%
1 nM
  Cell proliferation (cell number), column 2: 120% of control
  Cell proliferation (cell number), column 3: 108% of control
